# Assay results: paper PMC10310851 (Signal Transduction and Targeted Therapy, 2023)
# pIC50: −log10 of the molar value. Like-named read-outs stand apart in the source and are kept apart here.
# Legend:
# [1] = tested on: Lung cancer cell NCI-H3122; assay: Growth inhibition of cancer cell lines: NCI-H3122; type: cell-based; settings: Homo sapiens
# [2] = tested on: ROS1-positive advanced NSCLC; design: method as in PMID 29596029; settings: cited from earlier work
# [3] = tested on: ROS1-rearranged NSCLC; design: method as in PMID 31416808; settings: 2/6, METROS trial ref 13; cited from earlier work
# [4] = tested on: ROS1-rearranged NSCLC; design: method as in PMID 34511132; settings: first-line, cited from earlier work
# [5] = tested on: Lung cancer cell NCI-H2228; assay: Growth inhibition of cancer cell lines: NCI-H2228; type: cell-based; settings: Homo sapiens
# [6] = tested on: Gastric cancer cell SNU-5; assay: Growth inhibition of cancer cell lines: SNU-5; type: cell-based; settings: Homo sapiens
# [7] = design: method as in PMID 31751012; settings: cited from earlier work
# [8] = design: method as in PMID 25264305; settings: cited from earlier work
# [9] = tested on: ROS1 fusion-positive NSCLC; settings: cited from earlier work
# [10] = tested on: NSCLC with ROS1 rearrangements; design: method as in PMID 28520527; settings: cited from earlier work
# [11] = no radiotherapy within the preceding 6 months ref 21
# [12] = radiotherapy within the preceding 6 months ref 21
structure (smiles),measurement,setting,value
C[C@@H](Oc1cc(-c2cnn(C3CCNCC3)c2)cnc1N)c1c(Cl)ccc(F)c1Cl [crizotinib],pIC50,[1],6.67
same,ORR by IRC,[2]; OO 12-01 study ref 15,71.7%
same,DCR,[2],88.2%
same,Median PFS,[2],15.9 months
same,Rate of drug dose interruptions due to TRAEs,[2],22.8%
same,Intracranial ORR,[3],33%
same,Median PFS,[4]; non-CD74-ROS1 fusions ref 27,21.0 months
same,Median PFS,[4]; tumor harboring CD74-ROS1 ref 27,17.0 months
same,pIC50,[5],6.45
same,pIC50,[6],7.54
same,Any grade elevated ALT,[7],14%
same,Any grade elevated AST,[7],22%
same,Grade III or higher elevated ALT,[7],4%
same,Grade III or higher elevated AST,[7],2%
same,Dizziness,[8],16%
same,Dysgeusia,[8],18%
same,Ophthalmological AEs,[8],82%
same,Reduced neutrophil count,[8],12%
CN1CCN(c2ccc(C(=O)Nc3n[nH]c4ccc(Cc5cc(F)cc(F)c5)cc34)c(NC3CCOCC3)c2)CC1 [entrectinib],DCR,[9],75.8%
same,Intracranial ORR,[9],79.2%
same,Median PFS,[9],15.7 months
same,Median intracranial PFS,[9]; measurable central nervous system lesions at baseline ref 21,12.0 months
same,Intracranial ORR,[9]; [11],46.2%
same,Intracranial PFS,[9]; [11],8.8 months
same,ORR,[9]; overall patient population ref 21,67.1%
same,ORR,[9]; patients who had brain metastases at baseline ref 21,62.5%
same,ORR,[9]; patients with CD74-ROS1 fusions ref 21,72.9%
same,Intracranial ORR,[9]; [12],60%
same,Intracranial PFS,[9]; [12],16.1 months
Cc1cc(Nc2ncc(Cl)c(Nc3ccccc3S(=O)(=O)C(C)C)n2)c(OC(C)C)cc1C1CCNCC1 [ceritinib],Intracranial ORR,[10],29%
